Assays:
[1] = test system: Nalm6 leukemia cells; test: CD22 expression on Nalm6 in NSG mice after a single dose of Bryostatin 1; type: in vivo; conditions: single dose I.P.
Method: FIGS. 3A-3D: (FIG. 3A) Four cell lines (Nalm6, Kopn8, Pfieffer and Toldeo) were co-incubated with 1 ng/ml Bryostatin 1 for 24 hours and analyzed using flow cytometry one day after Bryostatin 1 exposure. Site density was analyzed using standardized Quantibrite-PE beads. (FIG. 3B) Cell lines were co-incubated with 1 ng/ml Bryostatin 1 for 24 hours, washed, and analyzed using flow cytometry at 1 and 7 days after Bryostatin 1 exposure. Fold change was calculated based on site density: (Cell line Bryostatin 1—Cell line DMSO)/Cell line DMSO. (FIG. 3C) NSG mice were injected with 1×10^6 GPF-positive Nalm6 leukemia cells on Day 0. Bryostatin 1 was administered at 0.8 μg/kg on Day 3. Mice were sacrificed 7 and 12 days after Bryostatin 1 injection and CD22 was evaluated by flow cytometry. (FIG. 3D) CD22-low relapse PDX cell line was cultured in vitro with 1 nmol/L Bryostatin 1 for 24 hours and measured for CD22 expression using CD22 antibody. […]
FACS analysis of cell surface CAR and protein expression was performed using an LSR II Fortessa flow cytometer (BD Biosciences). CD22-CAR was detected by incubation with 22-Fc (R&D Systems), followed by incubation with human IgG-specific PE-F(ab)2 (Thermo Fisher Scientific). […] CD22 site density was determined using QuantiBrite-PE beads (BD Biosciences) using methods previously described (Jasper et al., Cytometry B Clin Cytom 80(2):83-90, 2011). […]

[2] = test system: KOPN8 and SEM cell lines; test: RNA sequencing of Bryostatin 1-treated ALL cell lines; type: cell-based, human
Method: FIGS. 4A-4E: (FIGS. 4A-4B) KOPN8 or SEM cell lines were exposed to Bryostatin 1 for 16, 24, 48, or 72 hours. RNA was extracted from cells and analyzed using RNAseq. (FIGS. 4C-4E) Cell lines were co-incubated with 1 ng/ml of Bryostatin 1 for 24 hours. […] IL-2 (FIG. 4C), IFN-γ (FIG. 4D), and granzyme B (FIG. 4E) were measured by ELISA from cell culture supernatants. Statistical significance was calculated using an unpaired t-test (**** p<0.0001, *** p<0.0002, ** p<0.0021, * p<0.0332).
Sixteen RNA-seq samples were pooled and sequenced on one NextSeq high output run using Illumina TruSeq Poly A RNA Kit v3 with paired end sequencing. All samples had greater than 30 million pass filter reads with a base call quality above 95% of bases with Q30 and above. Reads of the samples were trimmed for adapters and low-quality bases using Trimmomatic software before alignment with the reference genome Human—hg19 and the annotated transcripts using STAR. The mapping quality statistics were calculated using Picard software and library complexity was measured in terms of unique fragments in the mapped reads using Picard's MarkDuplicate utility. The Partek Flow informatics pipeline was used to generate fold change and differentially expressed gene data as well as for data visualization. Gene set enrichment analysis (GSEA) of the differentially expressed genes was performed as previously described and using standard parameters.

[3] = test system: ALL and DLBCL tumor cells (Nalm6 site density lines and others); test: In vitro cytokine / granzyme B production assay (ELISA), CAR T cells co-cultured with tumor cells; type: cell-based, human
Method: For cytokine production assays, CAR or mock T cells were washed to remove IL-2 and re-suspended in RPMI medium. 1×10^5 effector cells were then co-cultured with tumor cells in RPMI at a 1:1 effector to target ratio in 96-well plates and incubated at 37° C. for 20 hours. The plates were spun at 1200 RPM for 6 minutes to pellet the cells, and cytokine concentrations in the culture supernatants were measured using IL-2 ELISA (R&D systems), IFNγ ELISA (R&D systems), or granzyme B ELISA (Thermo Fisher Scientific) kits according to the manufacturer's directions.

[4] = test system: CD22 expression on ALL and DLBCL cell lines (Nalm6, Kopn8, SEM, Pfeiffer, Toledo, PDX); conditions: Biberacher et al. 2012; cited from earlier work
[5] = CAR T cells pre-treated 1 ng/ml 24 hours, co-culture with ALL or DLBCL cell lines

CCC/C=C/C=C/C(=O)O[C@H]1/C(=C/C(=O)OC)C[C@H]2C[C@H]([C@@H](C)O)OC(=O)C[C@H](O)C[C@@H]3C[C@H](OC(C)=O)C(C)(C)[C@](O)(C[C@@H]4C/C(=C/C(=O)OC)C[C@H](/C=C/C(C)(C)[C@]1(O)O2)O4)O3 [Bryostatin 1]
CD22 MFI on Nalm6 in vivo ([1]; 1 week): increased
CD22 expression on Nalm6 in vivo ([1]; 12 days post-drug administration): return to baseline expression
genes with 2-fold increased expression versus control ([2]; KOPN8): 756 genes
genes with a greater than 2-fold change ([2]; KOPN8, 24 hours): 1524 genes
CD22 mRNA over the course of treatment ([2]; KOPN8 and SEM, 16, 24, 48, 72 hours): Neither cell line showed changes
genes with a 2-fold change ([2]; SEM): only one gene
IFN-γ produced by pre-treated CD22 CAR relative to DMSO-control [3, 5]: attenuated levels
granzyme B produced by pre-treated CD22 CAR relative to DMSO-control [3, 5]: significantly increased levels
Granzyme B production by the CD19 CAR ([3]; SEM cells exposed to 1 nM for 24 hours): did not show improved Granzyme B production
production of IL-2, IFN-γ, and granzyme B by the CD22 CAR ([3]; pre-treatment of B-ALL and DLBCL target cells, 1 ng/ml 24 hours): significantly enhanced
CD22 expression on chronic lymphocytic leukemia (CLL) [4]: increase CD22 expression

— patent US11939377B2, “Affinity matured CD22-specific monoclonal antibody and uses thereof” (The U.S.A., as represented by the Secretary, Department of …, priority 2018, dated 2024)
